Results reported in patent US12551536B2, “Semaglutide in medical therapy” (Novo Nordisk A/S, priority 2017, dated 2026).

What was measured:
Type in all cases: in vivo, human
[1] = 52-week clinical trial in obese subjects without diabetes mellitus: gastrointestinal adverse events; conditions: for Gastrointestinal adverse events, Observed data, % (percentage of subjects with at least one event) / Nausea, % (percentage of subjects experiencing at least one event) / Nausea, E (number of events) / Nausea, Ne (number of subjects experiencing at least one event) / Gastrointestinal adverse events, Observed data, Ne (number of subjects experiencing at least one event): on-treatment; for Nausea, % (percentage of subjects experiencing at least one event) / Nausea, E (number of events) / Nausea, Ne (number of subjects experiencing at least one event): observed data
Protocol: This trial was designed as a 52-week, randomised, double-blind, placebo-controlled, sixteen-armed, parallel group, multi-centre, multinational trial comparing once-daily subcutaneous administration of semaglutide in five different doses (ranging from 0.05 mg/day to 0.4 mg/day) with placebo in obese subjects without diabetes mellitus. […] The trial was double-blinded between active and placebo treatment. To ensure a sufficiently large sample of men, no more than 70% of the trial population was allowed to be women and the randomisation was stratified according to sex. Subjects were randomised in a balanced manner (6:1 active:placebo).
The primary endpoint was relative change from baseline in body weight (%) at 52 weeks. Key secondary endpoints included proportion of subjects with weight loss of ≥5% or ≥10% of baseline body weight at 52 weeks as well as change in body weight from baseline to 52 weeks. Supportive secondary safety endpoints also included gastrointestinal (GI) adverse events (i.e. nausea, vomiting, diarrhoea and constipation). During each site visit the individual subject was asked via open questions if they had experienced any medical problems since the last visit. All medical problems either observed by the site staff or the subject was reported as an adverse event and evaluated for severity and causality by the investigator. For this trial the subjects had site visits every 2 weeks for the first 20 weeks of the trial and afterwards site visits was performed every 4 weeks.
Subjects in all treatment arms including placebo received nutritional counselling and a calorie-reduced diet by a dietician or equivalent qualified delegate as well as physical activity counselling by a qualified person on a monthly basis beginning at the randomisation visit. The trial population consisted of a total of 957 subjects were randomised. A total of 777 subjects (81.2%) completed 52 weeks of treatment; 180 (18.8%) discontinued treatment prematurely with no obvious dose-dependent trend. Key inclusion criteria for this trial were: Male or female, age ≥18 years at the time of signing inform consent; body mass index (BMI)≥30.0 kg/m2 at the screening visit; and at least one unsuccessful weight loss attempt per investigator judgement. Key exclusion criteria for this trial were: A HbA1c≥6.5% at screening or diagnosed with type 1 or type 2 diabetes mellitus; Treatment with glucose lowering agent(s) within 90 days before screening; Screening calcitonin ≥50 ng/L (pg/mL); Personal or family history of medullary thyroid carcinoma or multiple endocrine neoplasia syndrome type 2; History of pancreatitis (acute or chronic); Obesity induced by endocrine disorders (e.g. Cushing Syndrome); Treatment with any medication within 90 days before screening that based on investigator's judgement may cause significant weight change; Previous surgical treatment for obesity (liposuction and/or abdominoplasty performed >1 year before screening is allowed); History of major depressive disorder within 2 years before randomisation; Any lifetime history of a suicidal attempt; and Female who is pregnant, breast-feeding or intends to become pregnant or is of childbearing potential and not using an adequate contraceptive method (adequate contraceptive measures as required by local regulation or practice).

[2] = 26-week clinical trial in adult patients with T2D: body weight change; conditions: on-treatment, estimated data
Protocol: (§1) A 26-week, randomized, double-blind clinical trial was carried out with adult patients with T2D, HbA1c 7.0-10.0% (53-86 mmol/mol), and body mass index 24.0-40.0 kg/m^2 who were treated with diet and exercise±metformin. […] The primary endpoint was change in HbA1c from baseline to week 26. Key exclusion criteria were a history of chronic or idiopathic acute pancreatitis and moderate-to-severe renal impairment (estimated glomerular filtration rate <60 mL/min/1.73 m^2).
(§2) Trial drug administration: Following a 2-week screening period, patients received trial medication for 26 weeks, followed by a 7-week follow-up period. […] The trial was double blinded within (but not between) each dose level of semaglutide, liraglutide and placebo, as treatment was volume matched.

[3] = system: HbA1c; experiment: 26-week clinical trial in adult patients with T2D: change in HbA1c; conditions: baseline to week 26
Protocol: as §1
Trial drug administration: Following a 2-week screening period, patients received trial medication for 26 weeks, followed by a 7-week follow-up period.

[4] = 26-week clinical trial in adult patients with T2D: gastrointestinal adverse events incl. nausea; conditions: on-treatment
Protocol: as §1, §2

[5] = Sema 0.05 mg once daily s.c., N 103
[6] = Sema 0.1 mg once daily s.c., N 102
[7] = Sema 0.2 mg once daily s.c., N 103
[8] = Sema 0.3 mg once daily s.c., N 103
[9] = Sema 0.4 mg once daily s.c., N 102
[10] = Sema 0.05 mg once daily s.c., N 64
[11] = Sema 0.1 mg once daily s.c., N 63
[12] = Sema 0.2 mg once daily s.c., N 65
[13] = Sema 0.3 mg once daily s.c., N 63

Q: Which “Corresponding Sema dose (dosage of semaglutide providing the same level of gastrointestinal adverse events as 3.0 mg liraglutide)” value ([1]; Lira 3.0 mg, Emax model, Estimate [95% CI]) does the source give for “N^6.26-{18-[N-(17-carboxyheptadecanoyl)-L-γ-glutamyl]-10-oxo-3,6,12,15-tetraoxa-9,18-diazaoctadecanoyl}-[8-(2-amino-2-propanoic acid),34-L-arginine]human glucagon-like peptide 1(7-37) [Sema]” here?
A: 0.28 mg

Q: What about the “Gastrointestinal adverse events, Observed data, % (percentage of subjects with at least one event)” value ([1]; Sema 0.05 mg once daily s.c.) of the same substance?
A: 62.1%

Q: And the “Nausea, % (percentage of subjects experiencing at least one event)” value ([1]; Sema 0.05 mg once daily s.c.)?
A: 31.1%

Q: What about the “Nausea, E (number of events)” value ([1]; Sema 0.05 mg once daily s.c.) of the same substance?
A: 41

Q: And the “Nausea, Ne (number of subjects experiencing at least one event)” value [1, 5]?
A: 32

Q: And the “Gastrointestinal adverse events, Observed data, Ne (number of subjects experiencing at least one event)” value [1, 5]?
A: 64

Q: What about the “Gastrointestinal adverse events, Observed data, % (percentage of subjects with at least one event)” value ([1]; Sema 0.1 mg once daily s.c.) of the same substance?
A: 70.6%

Q: And the “Nausea, % (percentage of subjects experiencing at least one event)” value ([1]; Sema 0.1 mg once daily s.c.)?
A: 41.2%

Q: What about the “Nausea, E (number of events)” value ([1]; Sema 0.1 mg once daily s.c.) of the same substance?
A: 80

Q: And the “Nausea, Ne (number of subjects experiencing at least one event)” value [1, 6]?
A: 42

Q: And the “Gastrointestinal adverse events, Observed data, Ne (number of subjects experiencing at least one event)” value [1, 6]?
A: 72

Q: And the “Gastrointestinal adverse events, Observed data, % (percentage of subjects with at least one event)” value ([1]; Sema 0.2 mg once daily s.c.)?
A: 69.9%

Q: And the “Nausea, % (percentage of subjects experiencing at least one event)” value ([1]; Sema 0.2 mg once daily s.c.)?
A: 43.7%

Q: And the “Nausea, E (number of events)” value ([1]; Sema 0.2 mg once daily s.c.)?
A: 74

Q: And the “Nausea, Ne (number of subjects experiencing at least one event)” value [1, 7]?
A: 45

Q: And the “Gastrointestinal adverse events, Observed data, Ne (number of subjects experiencing at least one event)” value [1, 7]?
A: 72

Q: What about the “Gastrointestinal adverse events, Observed data, % (percentage of subjects with at least one event)” value ([1]; Sema 0.3 mg once daily s.c.) of the same substance?
A: 69.9%

Q: And the “Nausea, % (percentage of subjects experiencing at least one event)” value ([1]; Sema 0.3 mg once daily s.c.)?
A: 41.7%

Q: And the “Nausea, E (number of events)” value ([1]; Sema 0.3 mg once daily s.c.)?
A: 69

Q: What about the “Nausea, Ne (number of subjects experiencing at least one event)” value [1, 8] of the same substance?
A: 43

Q: What about the “Gastrointestinal adverse events, Observed data, Ne (number of subjects experiencing at least one event)” value [1, 8] of the same substance?
A: 72

Q: What about the “Gastrointestinal adverse events, Observed data, % (percentage of subjects with at least one event)” value ([1]; Sema 0.4 mg once daily s.c.) of the same substance?
A: 82.4%

Q: What about the “Nausea, % (percentage of subjects experiencing at least one event)” value ([1]; Sema 0.4 mg once daily s.c.) of the same substance?
A: 48.0%

Q: And the “Nausea, E (number of events)” value ([1]; Sema 0.4 mg once daily s.c.)?
A: 94

Q: And the “Nausea, Ne (number of subjects experiencing at least one event)” value [1, 9]?
A: 49

Q: What about the “Gastrointestinal adverse events, Observed data, Ne (number of subjects experiencing at least one event)” value [1, 9] of the same substance?
A: 84

Q: What about the “Body weight change, mean (kg), baseline to week 26” value (“Body weight change, mean (kg)” below) ([2]; Sema 0.05 mg once daily s.c.) of the same substance?
A: -2.8 kg

Q: What about the “Body weight change, mean (kg)” value ([2]; Sema 0.1 mg once daily s.c.) of the same substance?
A: -4.3 kg

Q: What about the “Body weight change, mean (kg)” value ([2]; Sema 0.2 mg once daily s.c.) of the same substance?
A: -6.7 kg

Q: What about the “Body weight change, mean (kg)” value ([2]; Sema 0.3 mg once daily s.c.) of the same substance?
A: -8.2 kg

Q: And the “Mean Change in HbA1c % (SD)” value ([3]; Sema 0.05 mg once daily s.c.)?
A: −0.97 (0.85) %

Q: And the “Mean Change in HbA1c % (SD)” value ([3]; Sema 0.1 mg once daily s.c.)?
A: −1.30 (1.03) %

Q: What about the “Mean Change in HbA1c % (SD)” value ([3]; Sema 0.2 mg once daily s.c.) of the same substance?
A: −1.65 (0.79) %

Q: And the “Mean Change in HbA1c % (SD)” value ([3]; Sema 0.3 mg once daily s.c.)?
A: −1.96 (0.95) %

Q: And the “Gastrointestinal adverse events, % (percentage of patients experiencing at least one event)” value ([4]; Sema 0.05 mg once daily s.c.)?
A: 32.8%

Q: What about the “Gastrointestinal adverse events, E (number of events)” value (“Gastrointestinal adverse events, E” for short) ([4]; Sema 0.05 mg once daily s.c.) of the same substance?
A: 61

Q: And the “Nausea, % (percentage of patients experiencing at least one event)” value ([4]; Sema 0.05 mg once daily s.c.)?
A: 17.2%

Q: And the “Nausea, E (number of events)” value ([4]; Sema 0.05 mg once daily s.c.)?
A: 16

Q: What about the “Gastrointestinal adverse events, Ne (number of patients experiencing at least one event)” value (“Gastrointestinal adverse events, Ne” for short) [4, 10] of the same substance?
A: 21

Q: What about the “Nausea, Ne (number of patients experiencing at least one event)” value [4, 10] of the same substance?
A: 11

Q: What about the “Gastrointestinal adverse events, % (percentage of patients experiencing at least one event)” value ([4]; Sema 0.1 mg once daily s.c.) of the same substance?
A: 44.4%

Q: And the “Gastrointestinal adverse events, E” value ([4]; Sema 0.1 mg once daily s.c.)?
A: 90

Q: What about the “Nausea, % (percentage of patients experiencing at least one event)” value ([4]; Sema 0.1 mg once daily s.c.) of the same substance?
A: 19.0%

Q: What about the “Nausea, E (number of events)” value ([4]; Sema 0.1 mg once daily s.c.) of the same substance?
A: 20

Q: And the “Gastrointestinal adverse events, Ne” value [4, 11]?
A: 28

Q: What about the “Nausea, Ne (number of patients experiencing at least one event)” value [4, 11] of the same substance?
A: 12

Q: And the “Gastrointestinal adverse events, % (percentage of patients experiencing at least one event)” value ([4]; Sema 0.2 mg once daily s.c.)?
A: 46.2%

Q: What about the “Gastrointestinal adverse events, E” value ([4]; Sema 0.2 mg once daily s.c.) of the same substance?
A: 106

Q: And the “Nausea, % (percentage of patients experiencing at least one event)” value ([4]; Sema 0.2 mg once daily s.c.)?
A: 21.5%

Q: What about the “Nausea, E (number of events)” value ([4]; Sema 0.2 mg once daily s.c.) of the same substance?
A: 22

Q: What about the “Gastrointestinal adverse events, Ne” value [4, 12] of the same substance?
A: 30

Q: What about the “Nausea, Ne (number of patients experiencing at least one event)” value [4, 12] of the same substance?
A: 14

Q: What about the “Gastrointestinal adverse events, % (percentage of patients experiencing at least one event)” value ([4]; Sema 0.3 mg once daily s.c.) of the same substance?
A: 54.0%

Q: What about the “Gastrointestinal adverse events, E” value ([4]; Sema 0.3 mg once daily s.c.) of the same substance?
A: 101

Q: And the “Nausea, % (percentage of patients experiencing at least one event)” value ([4]; Sema 0.3 mg once daily s.c.)?
A: 25.4%

Q: What about the “Nausea, E (number of events)” value ([4]; Sema 0.3 mg once daily s.c.) of the same substance?
A: 22

Q: What about the “Gastrointestinal adverse events, Ne” value [4, 13] of the same substance?
A: 34

Q: What about the “Nausea, Ne (number of patients experiencing at least one event)” value [4, 13] of the same substance?
A: 16
